Test: On day 0 cells were seeded in 30 μL media into each well of 384-well cell culture plates. The seeding density was 8000 cells/well. On day 1, cells were treated with 30 nL DMSO or 30 nL of 3-fold serially DMSO-diluted compounds (10 points in duplicates with 1 μM as final top dose). Subsequently plates were incubated for 6 hours in a standard tissue culture incubator and equilibrated at room temperature for 15 minutes. Nanoluciferase activity was measured by adding 15 μL of freshly prepared Nano-Glo Luciferase Assay Reagent (Promega N1130), shaking the plates for 10 minutes and reading the bioluminescence using an EnVision reader.
Format: cell-based

Row | SMILES | IC50
1 | COc1cc(-c2cn(C)c(=O)c3cnccc23)cc(OC)c1CN1CC(OCc2cn(-c3ccc4c(c3)C(=O)N(C3CCC(=O)NC3=O)C4=O)nn2)C1 (stereo unspecified) | in the range around 0.055 µM
2 | COc1cc(-c2cn(C)c(=O)c3cnccc23)cc(OC)c1CN1CCC(OCc2cn(CCCOc3ccc4c(c3)C(=O)N(C3CCC(=O)NC3=O)C4=O)nn2)C1 (stereo unspecified) | in the range around 0.55 µM
3 | COc1cc(-c2cn(C)c(=O)c3cnccc23)cc(OC)c1CN1CCCC(OCc2cn(CCOc3ccc4c(c3)C(=O)N(C3CCC(=O)NC3=O)C4=O)nn2)C1 (stereo unspecified) | in the range around 0.055 µM
4 | COc1cc(-c2cn(C)c(=O)c3cnccc23)cc(OC)c1CN(C)C1CC2CC1CN2C(=O)CCOCCOc1ccc2c(c1)C(=O)N(C1CCC(=O)NC1=O)C2=O (stereo unspecified) | < 0.01 µM
5 | COc1cc(-c2cn(C)c(=O)c3cnccc23)cc(OC)c1CN1CCCC(OCc2cn(CCCCCOc3ccc4c(c3)C(=O)N(C3CCC(=O)NC3=O)C4=O)nn2)C1 (stereo unspecified) | < 0.01 µM
6 | COc1cc(-c2cn(C)c(=O)c3cnccc23)cc(OC)c1CN1CCC(OCc2cn(CCOCCOc3ccc4c(c3)C(=O)N(C3CCC(=O)NC3=O)C4=O)nn2)C1 (stereo unspecified) | in the range around 0.055 µM
7 | COc1cc(-c2cn(C)c(=O)c3cnccc23)cc(OC)c1CN(C)CC1CC2(CCN(C(=O)CCOCCOc3ccc4c(c3)C(=O)N(C3CCC(=O)NC3=O)C4=O)CC2)O1 (stereo unspecified) | < 0.01 µM
8 | COc1cc(-c2cn(C)c(=O)c3cnccc23)cc(OC)c1CN1CCC(OCc2cn(CCCCOc3ccc4c(c3)C(=O)N(C3CCC(=O)NC3=O)C4=O)nn2)C1 (stereo unspecified) | in the range around 0.055 µM
9 | COc1cc(-c2cn(C)c(=O)c3cnccc23)cc(OC)c1CN1CCC(OCc2cn(CCCCOc3ccc4c(c3)C(=O)N(C3CCC(=O)NC3=O)C4=O)nn2)CC1 (stereo unspecified) | in the range around 0.055 µM
10 | COc1cc(-c2cn(C)c(=O)c3cnccc23)cc(OC)c1CN1CCC(OCc2cn(-c3ccc4c(c3)C(=O)N(C3CCC(=O)NC3=O)C4=O)nn2)C1 (stereo unspecified) | in the range around 0.055 µM
11 | COc1cc(-c2cn(C)c(=O)c3cnccc23)cc(OC)c1CN1CC(OCc2cn(CCOCCOc3ccc4c(c3)C(=O)N(C3CCC(=O)NC3=O)C4=O)nn2)C1 (stereo unspecified) | in the range around 0.55 µM
12 | COc1cc(-c2cn(C)c(=O)c3cnccc23)cc(OC)c1CN(C)C1CC2CN(C(=O)CCOCCOc3cccc4c3C(=O)N(C3CCC(=O)NC3=O)C4=O)CC2C1 (stereo unspecified) | in the range around 0.055 µM
13 | COc1cc(-c2cn(C)c(=O)c3cnccc23)cc(OC)c1CN1CCCC(OCc2cn(-c3ccc4c(c3)C(=O)N(C3CCC(=O)NC3=O)C4=O)nn2)C1 (stereo unspecified) | in the range around 0.55 µM
14 | COc1cc(-c2cn(C)c(=O)c3cnccc23)cc(OC)c1CN(C)CC1CC2(CCN(C(=O)CCOCCOc3cccc4c3C(=O)N(C3CCC(=O)NC3=O)C4=O)CC2)O1 (stereo unspecified) | in the range around 0.055 µM
15 | COc1cc(-c2cn(C)c(=O)c3cnccc23)cc(OC)c1CN1CCC(OCc2cn(CCOCCOc3ccc4c(c3)C(=O)N(C3CCC(=O)NC3=O)C4=O)nn2)CC1 (stereo unspecified) | in the range around 0.055 µM
16 | COc1cc(-c2cn(C)c(=O)c3cnccc23)cc(OC)c1CN(C)CC1CC2(C1)CN(C(=O)CCOCCOc1cccc3c1C(=O)N(C1CCC(=O)NC1=O)C3=O)C2 (stereo unspecified) | in the range around 0.055 µM
17 | COc1cc(-c2cn(C)c(=O)c3cnccc23)cc(OC)c1CN(C)CC1CC12CCN(C(=O)CCOCCOc1ccc3c(c1)C(=O)N(C1CCC(=O)NC1=O)C3=O)CC2 (stereo unspecified) | in the range around 0.055 µM
18 | COc1cc(-c2cn(C)c(=O)c3cnccc23)cc(OC)c1CN1CCC(OCc2cn(CCCCCOc3ccc4c(c3)C(=O)N(C3CCC(=O)NC3=O)C4=O)nn2)CC1 (stereo unspecified) | < 0.01 µM

Row | SMILES | IC50
19 | COc1cc(-c2cn(C)c(=O)c3cnccc23)cc(OC)c1CN(C)CCc1cn(-c2ccc3c(c2)C(=O)N(C2CCC(=O)NC2=O)C3=O)nn1 (stereo unspecified) | in the range around 0.055 µM
20 | COc1cc(-c2cn(C)c(=O)c3cnccc23)cc(OC)c1CN1CCC(OCc2cn(CCOc3ccc4c(c3)C(=O)N(C3CCC(=O)NC3=O)C4=O)nn2)C1 (stereo unspecified) | in the range around 0.055 µM
21 | COc1cc(-c2cn(C)c(=O)c3cnccc23)cc(OC)c1CN1CCC(OCc2cn(-c3ccc4c(c3)C(=O)N(C3CCC(=O)NC3=O)C4=O)nn2)CC1 (stereo unspecified) | in the range around 0.055 µM
22 | COc1cc(-c2cn(C)c(=O)c3cnccc23)cc(OC)c1CN(C)CC1CC2(CCN(C(=O)CCOCCOc3ccc4c(c3)C(=O)N(C3CCC(=O)NC3=O)C4=O)CC2)C1 (stereo unspecified) | in the range around 0.055 µM
23 | COc1cc(-c2cn(C)c(=O)c3cnccc23)cc(OC)c1CN(C)C1CC2CN(C(=O)CCOCCOc3ccc4c(c3)C(=O)N(C3CCC(=O)NC3=O)C4=O)CC2C1 (stereo unspecified) | in the range around 0.055 µM
24 | COc1cc(-c2cn(C)c(=O)c3cnccc23)cc(OC)c1CN(C)C1CC2CC1CN2C(=O)CCOCCOc1cccc2c1C(=O)N(C1CCC(=O)NC1=O)C2=O (stereo unspecified) | in the range around 0.055 µM
25 | COc1cc(-c2cn(C)c(=O)c3cnccc23)cc(OC)c1CN1CCC(OCc2cn(CCOCc3ccc4c(c3)C(=O)N(C3CCC(=O)NC3=O)C4=O)nn2)CC1 (stereo unspecified) | in the range around 0.055 µM
26 | COc1cc(-c2cn(C)c(=O)c3cnccc23)cc(OC)c1CN1CCCC(OCc2cn(CCOCCOc3ccc4c(c3)C(=O)N(C3CCC(=O)NC3=O)C4=O)nn2)C1 (stereo unspecified) | in the range around 0.055 µM
27 | COc1cc(-c2cn(C)c(=O)c3cnccc23)cc(OC)c1CN(C)CC1CC2(CCN(C(=O)CCOCCOc3ccc4c(c3)C(=O)N(C3CCC(=O)NC3=O)C4=O)CC2)CO1 (stereo unspecified) | < 0.01 µM
28 | COc1cc(-c2cn(C)c(=O)c3cnccc23)cc(OC)c1CN(C)C1CCC2CN(C(=O)CCOCCOc3ccc4c(c3)C(=O)N(C3CCC(=O)NC3=O)C4=O)CC21 (stereo unspecified) | < 0.01 µM
29 | COc1cc(-c2cn(C)c(=O)c3cnccc23)cc(OC)c1CN1CCCC(OCc2cn(CCCOc3ccc4c(c3)C(=O)N(C3CCC(=O)NC3=O)C4=O)nn2)C1 (stereo unspecified) | in the range around 0.055 µM
30 | COc1cc(-c2cn(C)c(=O)c3cnccc23)cc(OC)c1CN(C)CC1CC12CCN(C(=O)CCOCCOc1cccc3c1C(=O)N(C1CCC(=O)NC1=O)C3=O)CC2 (stereo unspecified) | in the range around 0.055 µM
31 | COc1cc(-c2cn(C)c(=O)c3cnccc23)cc(OC)c1CN(C)C1CCC12CCN(C(=O)CCOCCOc1ccc3c(c1)C(=O)N(C1CCC(=O)NC1=O)C3=O)CC2 (stereo unspecified) | < 0.01 µM
32 | COc1cc(-c2cn(C)c(=O)c3cnccc23)cc(OC)c1CN1CCC(OCc2cn(CCOc3ccc4c(c3)C(=O)N(C3CCC(=O)NC3=O)C4=O)nn2)CC1 (stereo unspecified) | in the range around 0.055 µM
33 | COc1cc(-c2cn(C)c(=O)c3cnccc23)cc(OC)c1CN(C)CC1CC2(CCN(C(=O)CCOCCOc3cccc4c3C(=O)N(C3CCC(=O)NC3=O)C4=O)CC2)C1 (stereo unspecified) | in the range around 0.055 µM
34 | COc1cc(-c2cn(C)c(=O)c3cnccc23)cc(OC)c1CN1CCC(OCc2cn(CCCCCOc3ccc4c(c3)C(=O)N(C3CCC(=O)NC3=O)C4=O)nn2)C1 (stereo unspecified) | < 0.01 µM
35 | COc1cc(-c2cn(C)c(=O)c3cnccc23)cc(OC)c1CN(C)C1CCC2CN(C(=O)CCOCCOc3cccc4c3C(=O)N(C3CCC(=O)NC3=O)C4=O)CC21 (stereo unspecified) | in the range around 0.055 µM
36 | COc1cc(-c2cn(C)c(=O)c3cnccc23)cc(OC)c1CN(C)CC1CC2(C1)CN(C(=O)CCOCCOc1ccc3c(c1)C(=O)N(C1CCC(=O)NC1=O)C3=O)C2 (stereo unspecified) | in the range around 0.55 µM

Source: ChEMBL document CHEMBL5729561, “Compounds and uses thereof” (2023)
